{
  "source": "patent US20230355596A1",
  "about": "“COMPOSITIONS AND METHODS OF USING NMDAR INHIBITORS AND KINASE INHIBITORS TO TREAT LIVER CANCER” (The University of Hong Kong, priority 2022, published 2023)",
  "key": {"MHCC97L cells [1]": {"system": "MHCC97L cells", "assay": "MTT cell viability assay and drug interaction analysis", "type": "cell-based, human", "conditions": "single drug"}, "MHCC97L cells [2]": {"system": "MHCC97L cells", "assay": "RNA-sequencing of drug-treated cells", "type": "cell-based, human", "conditions": "10 μM ifenprodil, 5 μM sorafenib, 24 hours", "description": "3×10^5 MHCC97L cells were seeded onto a 10 -cm dish. 10 μM ifenprodil, 5 μM sorafenib, or both were added to the cells 1 day after seeding, and the control group was treated with DMSO (Sigma-Aldrich). After 24 hours of drug treatment, RNA was extracted using the MiniBEST Universal RNA Extraction Kit (TaKaRa) following the manufacturer's protocol. The final product was eluted in DEPC-treated H2O (ThermoFisher Scientific). RNA-seq experiments were performed at the Centre for Genomic Sciences (LKS Faculty of Medicine, The University of Hong Kong). The Illumina adaptors of the paired-end raw sequence reads were trimmed by Trimmomatic 0.39. The STAR aligner version 2.7 was used to align the sequence reads to the human genome (GRCh38.p13, Ensembl release 99) and quantify read counts for each Ensembl gene feature, which generated the raw count gene matrix. Differential expression analysis was performed in R (v 3.6.3) using DESeq2 (1.26.0) with the raw count matrix as input. Three biological replicates each for the ifenprodil-, sorafenib-, and ifenprodil+sorafenib combination-treated groups are compared against the DMSO-treated negative control group. Differentially expressed genes (DEGs) were identified as genes with the absolute values of its shrunken log2 fold-changes bigger than 1 and a false discovery rate smaller than 0.05. Gene annotation was done using the bioMaRt (2.42.1) package with Ensembl Human genes (GRCh38.p13) dataset. Gene ontology enrichment analysis was performed on up/down regulated DEGs retrieved from either ifenprodil, sorafenib, or ifenprodil+sorafenib treatment using string v11.0 (internet site: string-db.org/). Top hits Gene ontologies (biological processes) were identified as GO enriched with a false discovery rate less than 0.01 and contain more than 40 observations for over-expressions and down-regulations of DEGs in total across all treatments. More specific GO terms containing fewer than 3000 genes and fewer than 300 observations across all treatments were then focused on."}, "MHCC97L cells [3]": {"system": "MHCC97L cells", "assay": "Cell cycle analysis (PI staining, flow cytometry)", "type": "cell-based, human", "conditions": "10 μM ifenprodil, 5 μM sorafenib, 24 hours", "text": "Cells transduced with florescent proteins were trypsinized, washed with PBS, and resuspended in PBS containing 2% FBS. Resuspended cells were subjected to flow cytometry analysis using the BD FACSCantoII, ACEA NovoCyte Quanteon (Agilent) or BD LSR Fortessa Analyzer (BD Biosciences). The signal of TurboRFP and EGFP was detected by a 561 nm yellow-green laser (610/20 nm) and a 488 nm blue laser (530/30 nm), respectively. For cell cycle analysis, cells harvested by trypsinization were washed by PBS. Cell pellets were fixed by ice-cold 70% ethanol at 4° C. for 1 hour. The fixed cells were rehydrated by replacing ethanol with PBS for 15 minutes at room temperature for cell cycle analysis. To remove RNAs, 5 μl RNase A (10 mg/ml) per 500 μl PBS was added and incubated at 37° C. for 15 minutes. The DNA contents were stained by propidium iodide (ThermoFisher Scientific) for 1 hour at room temperature in dark. Signal was detected by a 561 nm yellow-green laser (581/15 nm). FlowJo software (v10.5.3, Becton Dickinson) was used for data analysis. For cell sorting, cells were collected following the normal trypsinization and PBS washing steps. Cell pellets were resuspended in PBS with 2% FBS and 2X antibiotic-antimycotic. […] Signal was detected by a 488 nm blue laser (530/40 nm). ˜500-fold more cells were sorted into culture medium supplemented with 10% FBS and 2X antibiotic-antimycotic. […]"}, "NMDAR subunits": {"system": "NMDAR subunits", "conditions": "cited from earlier work"}, "HCC patients [4]": {"system": "HCC patients", "conditions": "phase III, first line; cited from earlier work"}, "HCC patients [5]": {"system": "HCC patients", "conditions": "Asian study; cited from earlier work"}, "HCC patients [6]": {"system": "HCC patients", "conditions": "cited from earlier work"}},
  "note": "Read-outs that look alike come from different tables or passages of the source.",
  "data": [
    {"smiles": "CC(C(O)c1ccc(O)cc1)N1CCC(Cc2ccccc2)CC1", "note": "(stereo not shown) [Ifenprodil, ifenprodil]", "values": [
      {"measurement": "HCC growth, NMDAR inhibitor alone", "setting": "MHCC97L cells [1]", "result": "did not significantly suppress"},
      {"measurement": "CDK1A expression (RNA-seq) compared to non-treated cells", "setting": "MHCC97L cells [2]", "result": "significantly upregulated"},
      {"measurement": "CDK2 expression (RNA-seq) compared to non-treated cells", "setting": "MHCC97L cells [2]", "result": "significantly downregulated"},
      {"measurement": "DDIT3 expression (RNA-seq) compared to non-treated cells", "setting": "MHCC97L cells [2]", "result": "significantly upregulated"},
      {"measurement": "ERN1 expression (RNA-seq) compared to non-treated cells", "setting": "MHCC97L cells [2]", "result": "no differences were observed"},
      {"measurement": "G1-phase cell-cycle arrest", "setting": "MHCC97L cells [3]", "result": "not with either IFEN or SOR alone"},
      {"measurement": "NMDAR subunit selectivity", "setting": "NMDAR subunits", "result": "more selective for NMDAR1/NMDAR2B subunits"},
      {"measurement": "toxicity / safety as therapeutic agent", "setting": "NMDAR subunits", "result": "tested safe in human"},
      {"measurement": "toxicity / safety as therapeutic agent", "setting": "NMDAR subunits; listed as IFEN", "result": "known safety history"}
    ]},
    {"smiles": "CNC(=O)c1cc(Oc2ccc(NC(=O)Nc3ccc(Cl)c(C(F)(F)F)c3)cc2)ccn1", "note": "[Sorafenib, sorafenib]", "values": [
      {"measurement": "Median survival", "setting": "HCC patients [4]", "result": 9.9, "unit": "months"},
      {"measurement": "discontinuation rate", "setting": "HCC patients [4]", "result": 33, "unit": "%"},
      {"measurement": "CDK1A expression (RNA-seq) compared to non-treated cells", "setting": "MHCC97L cells [2]", "result": "significantly upregulated"},
      {"measurement": "CDK2 expression (RNA-seq) compared to non-treated cells", "setting": "MHCC97L cells [2]", "result": "significantly downregulated"},
      {"measurement": "DDIT3 expression (RNA-seq) compared to non-treated cells", "setting": "MHCC97L cells [2]", "result": "significantly upregulated"},
      {"measurement": "ERN1 expression (RNA-seq) compared to non-treated cells", "setting": "MHCC97L cells [2]", "result": "significantly upregulated"},
      {"measurement": "G1-phase cell-cycle arrest", "setting": "MHCC97L cells [3]", "result": "not with either IFEN or SOR alone"},
      {"measurement": "median overall survival", "setting": "HCC patients [5]", "result": 6.5, "unit": "months"},
      {"measurement": "median overall survival", "setting": "HCC patients [6]; SHARP trial", "result": 10.7, "unit": "months"},
      {"measurement": "tolerability", "setting": "HCC patients [6]; phase III trials", "result": "generally well tolerated"}
    ]}
  ]
}
